# Assay results: patent publication US8314150B2, “Kinase protein binding inhibitors” (priority 2008, dated 2012)
# Assays:
# [1] = tested on: BT474, T47D, MCF-7 breast cancer, HT29 colon cancer, C8161 melanoma, A549 lung cancer cell lines; assay: MTT cell viability screen of 36 compounds in 6 cancer cell lines; assay type: cell-based; settings: 100 μM, 24 hours, among 36 compounds
# Experimental: Cell Viability Assay—The Cells were treated with peptides for 24 hours at different peptide concentrations. The 3-(4,5-dimethylthiazol-2-yl)-5-(3-carboxymethoxyphenyl)-2-(4-sulfophenyl)-2H-tetrazolium compound from Promega Viability kit (Madison, Ill.) was added, and the cells were incubated at 37° C. for 1-2 hours. The optical density on 96-plate was analyzed with a microplate reader at 490 nm to determine cell viability. In addition, cells were stained with trypan blue after 24 hours of treatment with Y15 and the percent of cells that stained positive were determined with a hemacytometer. […] Then 2% SDS was added to the dried plated and OD at 590 nm was measured for detecting cell adhesion. […] Protein concentrations were determined using a Bio-Rad Kit. The boiled samples were loaded on Ready SDS-10% PAGE gels (Bio Rad, Inc) and used for Western blot analysis with the protein-specific antibody. […] Detachment Assay—Cells were plated with and without inhibitors for 24 hours, and detached and attached cells were counted in a hemocytometer. We calculated the percent of detachment by dividing the number of detached cells by the total number of cells. The percent of detached cells was calculated in three independent experiments. […] For each experiment 300 cells per treatment were counted. […]
# BT474 cells = assay: Detachment assay, BT474; assay type: cell-based; settings: 24 hours
# Experimental: Cell Viability Assay—The Cells were treated with peptides for 24 hours at different peptide concentrations. The 3-(4,5-dimethylthiazol-2-yl)-5-(3-carboxymethoxyphenyl)-2-(4-sulfophenyl)-2H-tetrazolium compound from Promega Viability kit (Madison, Ill.) was added, and the cells were incubated at 37° C. for 1-2 hours. The optical density on 96-plate was analyzed with a microplate reader at 490 nm to determine cell viability. In addition, cells were stained with trypan blue after 24 hours of treatment with Y15 and the percent of cells that stained positive were determined with a hemacytometer. Cell adhesion assay—The poly-L-Lysine or Collagen (5 μg/ml) coated 96-well plates were blocked with the blocking buffer (medium with 0.5% BSA) for 1 hour at 37 C. The cells were pre-treated with drugs for 3 hours and plated for adhesion at 4×10^5 cells. Cells were incubated at 37 C for 1 hour, fixed in 3.7% formaldehyde, washed in 0.1% BSA in PBS and stained with crystal violet (5 mg/ml in 2% ethanol) for 10 minutes. Then 2% SDS was added to the dried plated and OD at 590 nm was measured for detecting cell adhesion. Western Blotting—Cells or homogenized tumor samples were washed twice with cold 1×PBS and lysed on ice for 30 minutes in a buffer containing: 50 mM Tris-HCl (pH 7.5), 150 mM NaCl, 1% Triton-X, 0.5% NaDOC, 0.1% SDS, 5 mM EDTA, 50 mM NaF, 1 mM NaVO3, 10% glycerol and protease inhibitors: 10 μg/ml leupeptin, 10 μg/ml PMSF and 1 μg/ml aprotinin. The lysates were cleared by centrifugation at 10,000 rpm for 30 minutes at 4° C. Protein concentrations were determined using a Bio-Rad Kit. The boiled samples were loaded on Ready SDS-10% PAGE gels (Bio Rad, Inc) and used for Western blot analysis with the protein-specific antibody. Immunoblots were developed with chemiluminescence Renaissance reagent (NEN Life Science Products, Inc). Immunoprecipitation. Immunoprecipitation was performed according to the standard protocol. In brief, the pre-cleared lysates with equal amount of protein were incubated with 1 μg of primary antibody and 30 μl A/G agarose beads overnight at 4° C. The precipitates were washed with lysis buffer three times and re-suspended in 2× Laemmli buffer. The boiled samples were used for Western blotting, as described above. Detachment Assay—Cells were plated with and without inhibitors for 24 hours, and detached and attached cells were counted in a hemocytometer. We calculated the percent of detachment by dividing the number of detached cells by the total number of cells. The percent of detached cells was calculated in three independent experiments. Apoptosis Assay. […] The percent of apoptotic cells was calculated as a ratio of apoptotic detached cells divided by the total number of cells in three independent experiments in several fields with the fluorescent microscope. For each experiment 300 cells per treatment were counted. In vitro Kinase Assay—10 μCi of [γ-^32P]-ATP in a kinase buffer (20 mM HEPES, pH 7.4, 5 mM MgCl2, 5 mM MnCl2, 0.1 mM Na3VO4 with 0.1 μg of purified FAK protein were incubated in a kinase buffer with 10 μCi of [γ-^32P]-ATP. The kinase reaction was performed for 5 minutes at room temperature and stopped by addition of 2× Laemmli buffer. Proteins were separated on a Ready SDS-10% PAGE gel, and the phosphorylated enolase was visualized by autoradiography. KinaseProfiler screening—Kinase specificity screening was performed with KinaseProfiler™ Service (Millipore) available on http://www.millipore.com/drugdiscovery/dd3/KinaseProfiler. […]
compound,measurement,setting,value
"Cl.Cl.Cl.Cl.Nc1cc(N)c(N)cc1N [Y15, 1,2,4,5-benzenetetraamine tetrahydrochloride]",cell viability,[1],maximally decreased cell viability
same,detachment,BT474 cells; 10 μM,8%
same,detachment,BT474 cells; 50 μM,38%
same,detachment,BT474 cells; 100 μM,58%
